This passage reports TGI and GI50 results from PubChem BioAssay (NCI).

“And” between values parts separate entries of the source, which are not always exact repeats. Identical values can stand only once.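 Growth conditions: 96-well plates. Treatment: test compound, 48 hours, 5 concentrations. Analysis: linear interpolation between bracketing concentrations; unreached endpoints set to highest concentration. GI50 marks 50% less growth. TGI: concentration producing complete growth inhibition.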

Test in all cases: growth of human tumour cells (NCI), 48 h
The test system of assay [1] is CCRF-CEM leukemia.
The test system of assay [2] is DLD-1 colon.
Assay [3] relates to DU-145 prostate.
Assay [4] has as its system HL-60(TB) leukemia.
Assay [5] deals with HT29 colon.
Assay [6] concerns MOLT-4 leukemia.
Assay [7] has as its system OVCAR-4 ovarian.
For assay [8], the system named is OVCAR-5 ovarian.
The subject of assay [9] is U251 CNS.
For assay [10], the system named is M19-MEL melanoma.
Assay [11] has as its system SK-MEL-5 melanoma.

Take `CC(C)(C)CC(C)(C)c1ccc(OCCOCC[N+](C)(C)Cc2ccccc2)cc1`: the TGI is 6.36 µM in assay [1]; 20.3 µM in assay [2]; 3.36 µM in [3]; 6.31 µM in assay [4]; 2.49 µM and 3.3 µM in assay [5]; 6.05 µM in [6]. Further, the TGI in [7] was 9.38 µM; in [8] it was 3.25 µM and 19.2 µM; in [9], 4.44 µM. Besides, the GI50 in assay [3] was 1.77 µM; in [5], 1.14 µM; in [8], 1.7 µM.
In the case of `COC(=O)n1c(C[P+](c2ccccc2)(c2ccccc2)c2ccccc2)cc2ccccc21`, the TGI in assay [1] was determined as 21.1 µM; in [2], 11.4 µM; in assay [4], 6.12 µM; in assay [5] it was 11.8 µM; in [10] it was 13.1 µM; in assay [6] it was 17.8 µM. The values for the TGI in assay [8], in assay [11] and in assay [9] were 8.66 µM, 3.93 µM and 17.5 µM, respectively.
Regarding `CC(=O)Nc1ccc(C(=O)N2N=C(C)/C(=C/c3ccc(O)cc3)C2=O)cc1`, the TGI in [1], in assay [2], in assay [4], in assay [5], in assay [10] and in assay [6] was greater than 100 µM in each case. Further, the TGI in assay [7], in assay [8], in assay [11] and in [9] was greater than 100 µM throughout.
On to `O=S1(=O)CCN(c2ccccc2CC(c2c[nH]c3ccccc23)c2c[nH]c3ccccc23)CC1`, for which the TGI in assay [1] is 11.1 µM; in [2], 21.4 µM; in assay [3] it was 35.4 µM; in assay [4] it was 12.7 µM; in assay [5], 23.3 µM; in [10] it was 23 µM. Also, the TGI in assay [6] is 8.87 µM; in assay [7], greater than 63.7 µM; in [8], 54.9 µM; in assay [11], 19.8 µM; in assay [9], 24 µM.
In the case of `Nc1c(N=Nc2ccc(-c3ccc(N=Nc4c(O)ccc5cc(S(=O)(=O)O)cc(S(=O)(=O)O)c45)cc3)cc2)c(S(=O)(=O)O)cc2cc(S(=O)(=O)O)c(N=Nc3ccccc3)c(O)c12`, the TGI in assay [1], in assay [2], in assay [4], in assay [5], in assay [10] and in [6] was greater than 100 µM in each case. Also, the TGI in assay [7], in assay [8], in assay [11] and in assay [9] was greater than 100 µM throughout.
With `CCOC1=C2NC(Cc3ccc(F)cc3)=NC2C(=O)c2ccccc21` (stereo not drawn), the TGI was 61.8 µM in assay [1]; greater than 100 µM in assay [2]; 22.2 µM in assay [4]; 58.7 µM in assay [5]; 39.5 µM in [10]; 46.7 µM in assay [6]. Moreover, the TGI in [8] and in assay [9] was greater than 100 µM throughout.
With `C/C(=C\Cc1cc(O)ccc1O)CCc1c(C)cc(O)c(C=O)c1C`, the GI50 in assay [1] was 4.46 µM. Moreover, the TGI was 30.5 µM in assay [1]; 55.1 µM in assay [2]; greater than 100 µM in assay [4]; 48.6 µM in [5]; greater than 100 µM in assay [6]; greater than 100 µM in assay [7]. Also, the TGI in [11] is 31.7 µM; in [9] it was 67.6 µM.
For `Cc1cc2n([O-])cccc-2[n+](=O)c1`, the TGI in assay [1], in assay [2], in [4], in [5], in assay [10] and in assay [6] was greater than 100 µM in each case. Moreover, the TGI in assay [7], in [8], in [11] and in assay [9] was greater than 100 µM in each case.
Consider `COC(=O)CC(NC(=O)OCc1ccccc1)C(C(=O)OCc1ccccc1)C1(C)OCCO1` (stereo not drawn), for which the TGI was greater than 100 µM in assay [1]; greater than 100 µM in assay [2]; 62.6 µM in [4]; greater than 100 µM in assay [5]; greater than 100 µM in assay [10]; 57.3 µM in assay [6]. Further, the values for the TGI in [7], in [11] and in [9] were greater than 100 µM, 32.7 µM and greater than 100 µM, respectively.
With `CC1(C)COC(c2c(-c3ccccc3)noc2CS(=O)c2ccccc2)=N1` (stereo not drawn), the TGI in assay [1] is greater than 100 µM; in [2], greater than 100 µM; in assay [4], 84.6 µM; in assay [5], greater than 100 µM; in [10], greater than 100 µM; in assay [6] it was greater than 100 µM. Besides, the TGI in assay [7], in [8], in assay [11] and in [9] was greater than 100 µM throughout.
In the case of `CC(c1ccccc1)N1CC(C)(c2ccccc2)N(O)C(c2ccccc2)C1C` (stereo not drawn), the TGI in assay [1] was 31 µM; in assay [2], greater than 100 µM; in assay [4], 13.5 µM; in [5] it was greater than 100 µM; in assay [6], 29.8 µM; in [8] it was greater than 100 µM. Also, the TGI in [9] came out at 32.7 µM.
On to `O=c1c2c(nc3n1CCC3)sc1c(O)c(Br)ccc12`, for which the TGI in assay [1] was 45.1 µM; in assay [2] it was greater than 100 µM; in assay [4], 33.8 µM; in assay [5], 33.1 µM; in [10], 32.8 µM; in assay [6] it was 55.1 µM. The TGI in assay [7] worked out at 54.9 µM; in assay [8] it was 51.7 µM; in [11], 30.4 µM; in assay [9], 57.3 µM.
For the molecule `Cc1cc2occ(-c3ccc(Cl)cc3)c2c(=O)o1`, the TGI in [1], in assay [2], in [4], in [5], in assay [6] and in [7] was greater than 100 µM throughout. Also, the TGI in [8], in assay [11] and in assay [9] was greater than 100 µM in each case.
With `Cc1cc(=O)[nH]c(NNC(C#N)c2ccc([N+](=O)[O-])cc2)n1` (stereo not drawn), the TGI in assay [1], in [2], in [4], in [5], in assay [10] and in [6] was greater than 100 µM in each case. In addition, the TGI in [7], in assay [8], in assay [11] and in assay [9] was greater than 100 µM each time.
Consider `Cc1cc([N+](=O)[O-])c(S(=O)(=O)c2ccccc2)c([N+](=O)[O-])c1`, for which the TGI in assay [1] is greater than 28 µM; in [2] it was 17 µM; in assay [4], 10.7 µM; in assay [5] it was 19.1 µM; in assay [10], 26.3 µM; in [6] it was greater than 28.9 µM. Moreover, the TGI in assay [7] amounted to 24.5 µM; in [8] it was 33.6 µM; in assay [11], 27.8 µM; in [9], 26.6 µM.
Turning to `CCN(CC)CCCCC1CCN(CC(=O)N2c3ccccc3NC(=O)CC2C)CC1` (stereo not drawn), the TGI in assay [1], in assay [4], in assay [5], in assay [10], in assay [6] and in assay [7] was greater than 100 µM in each case. In addition, the TGI in assay [8], in assay [11] and in assay [9] was greater than 100 µM in each case.
